Test results: the kinase profiling compilation of Christmann-Franck et al. (2016)

Tests used:
Test in all cases: radiometric filter-binding kinase assay, Kinase HotSpot
Conditions in all cases: compound 0.5 µM; ATP 10 µM
CAMK1G (human) = CAMK1G (human) (UniProt Q96NX5)
AURKB (human) = AURKB (human) (UniProt Q96GD4)
CSNK2A1 (human) = CSNK2A1 (human) (UniProt P68400)
PDGFRA (human) = PDGFRA (human) (UniProt P16234)
MAP3K14 (human) = MAP3K14 (human) (UniProt Q99558)
SYK (human) = SYK (human) (UniProt P43405)
MAP3K3 (human) = MAP3K3 (human) (UniProt Q99759)
ERBB4 (human) = ERBB4 (human) (UniProt Q15303)
STK4 (human) = STK4 (human) (UniProt Q13043)
CAMK1 (human) = CAMK1 (human) (UniProt Q14012)
CDK1 CCNB1 (human) = CDK1 CCNB1 (human) (UniProt P06493+P14635)
KIT (human) = KIT (human) (UniProt P10721)
CDK9 CCNK (human) = CDK9 CCNK (human) (UniProt O75909+P50750)
MAP3K2 (human) = MAP3K2 (human) (UniProt Q9Y2U5)
IKBKE (human) = IKBKE (human) (UniProt Q14164)
SRMS (human) = SRMS (human) (UniProt Q9H3Y6)
CAMK2B (human) = CAMK2B (human) (UniProt Q13554)
PAK7 (human) = PAK7 (human) (UniProt Q9P286)
PDPK1 (human) = PDPK1 (human) (UniProt O15530)
PRKCZ (human) = PRKCZ (human) (UniProt Q05513)
MAPK10 (human) = MAPK10 (human) (UniProt P53779)
STK10 (human) = STK10 (human) (UniProt O94804)
ZAP70 (human) = ZAP70 (human) (UniProt P43403)
CAMK2D (human) = CAMK2D (human) (UniProt Q13557)
AURKC (human) = AURKC (human) (UniProt Q9UQB9)
RAF1 (human) = RAF1 (human) (UniProt P04049)
MAP3K9 (human) = MAP3K9 (human) (UniProt P80192)
STK16 (human) = STK16 (human) (UniProt O75716)
TEK (human) = TEK (human) (UniProt Q02763)
MAP3K7 TAB1 (human) = MAP3K7 TAB1 (human) (UniProt O43318+Q15750)
ROS1 (human) = ROS1 (human) (UniProt P08922)
EPHA2 (human) = EPHA2 (human) (UniProt P29317)
PRKG2 (human) = PRKG2 (human) (UniProt Q13237)
CDK6 CCND1 (human) = CDK6 CCND1 (human) (UniProt Q00534+P24385)
BRSK2 (human) = BRSK2 (human) (UniProt Q8IWQ3)
PRKCB1 (human) = PRKCB1 (human) (UniProt P05771)
AKT2 (human) = AKT2 (human) (UniProt P31751)
DYRK1B (human) = DYRK1B (human) (UniProt Q9Y463)
MAP3K11 (human) = MAP3K11 (human) (UniProt Q16584)
PRKD3 (human) = PRKD3 (human) (UniProt O94806)
CSK (human) = CSK (human) (UniProt P41240)
WEE1 (human) = WEE1 (human) (UniProt P30291)

Chain of PDGFRA (human) (P16234 whole entry, looked up): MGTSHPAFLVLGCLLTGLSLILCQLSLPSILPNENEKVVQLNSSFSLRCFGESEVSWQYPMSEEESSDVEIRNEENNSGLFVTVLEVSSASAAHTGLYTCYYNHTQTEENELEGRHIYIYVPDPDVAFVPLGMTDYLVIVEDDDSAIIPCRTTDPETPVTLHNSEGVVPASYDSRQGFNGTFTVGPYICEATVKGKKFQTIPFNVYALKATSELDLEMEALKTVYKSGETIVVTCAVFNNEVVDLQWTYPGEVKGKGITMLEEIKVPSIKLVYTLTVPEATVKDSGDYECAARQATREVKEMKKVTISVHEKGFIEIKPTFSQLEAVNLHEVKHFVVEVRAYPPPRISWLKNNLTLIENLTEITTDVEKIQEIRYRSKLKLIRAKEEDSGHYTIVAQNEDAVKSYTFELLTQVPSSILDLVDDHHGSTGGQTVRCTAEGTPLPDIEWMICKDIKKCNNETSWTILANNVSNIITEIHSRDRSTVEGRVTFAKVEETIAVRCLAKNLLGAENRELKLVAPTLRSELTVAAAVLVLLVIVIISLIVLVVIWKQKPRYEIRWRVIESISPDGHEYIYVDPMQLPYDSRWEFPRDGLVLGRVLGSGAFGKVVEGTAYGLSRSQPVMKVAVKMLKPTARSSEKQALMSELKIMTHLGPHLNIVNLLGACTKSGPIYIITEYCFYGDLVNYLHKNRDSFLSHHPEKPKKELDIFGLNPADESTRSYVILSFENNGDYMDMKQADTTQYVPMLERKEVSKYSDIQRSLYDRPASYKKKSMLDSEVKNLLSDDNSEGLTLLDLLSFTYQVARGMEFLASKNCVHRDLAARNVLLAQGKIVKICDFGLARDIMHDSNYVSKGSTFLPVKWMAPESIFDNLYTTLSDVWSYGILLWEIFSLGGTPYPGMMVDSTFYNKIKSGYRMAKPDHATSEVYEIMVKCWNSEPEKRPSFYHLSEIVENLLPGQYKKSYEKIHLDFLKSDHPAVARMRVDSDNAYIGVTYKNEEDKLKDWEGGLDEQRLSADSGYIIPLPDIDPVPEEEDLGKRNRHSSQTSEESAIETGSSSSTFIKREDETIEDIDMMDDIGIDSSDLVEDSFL
Chain of BRSK2 (human) (Q8IWQ3 whole entry, looked up): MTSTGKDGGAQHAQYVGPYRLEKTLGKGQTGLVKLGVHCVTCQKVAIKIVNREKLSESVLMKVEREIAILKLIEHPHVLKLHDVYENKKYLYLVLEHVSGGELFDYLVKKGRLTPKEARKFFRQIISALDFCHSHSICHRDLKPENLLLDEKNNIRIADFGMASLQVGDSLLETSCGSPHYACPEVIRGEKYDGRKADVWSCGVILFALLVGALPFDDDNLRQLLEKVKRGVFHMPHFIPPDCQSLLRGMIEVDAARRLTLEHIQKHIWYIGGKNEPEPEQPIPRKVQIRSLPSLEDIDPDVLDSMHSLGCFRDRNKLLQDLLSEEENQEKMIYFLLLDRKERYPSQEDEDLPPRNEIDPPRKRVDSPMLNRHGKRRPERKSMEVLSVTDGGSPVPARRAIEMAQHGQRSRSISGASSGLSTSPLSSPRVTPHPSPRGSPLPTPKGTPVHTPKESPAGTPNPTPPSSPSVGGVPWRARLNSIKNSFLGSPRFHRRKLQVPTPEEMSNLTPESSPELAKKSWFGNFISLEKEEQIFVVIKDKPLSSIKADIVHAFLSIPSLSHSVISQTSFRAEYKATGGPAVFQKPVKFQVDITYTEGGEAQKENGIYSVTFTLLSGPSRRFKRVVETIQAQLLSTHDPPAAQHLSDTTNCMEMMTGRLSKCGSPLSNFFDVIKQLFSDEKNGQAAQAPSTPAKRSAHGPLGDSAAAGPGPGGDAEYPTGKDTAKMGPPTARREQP
Chain of PRKCB1 (human) (P05771 whole entry, looked up): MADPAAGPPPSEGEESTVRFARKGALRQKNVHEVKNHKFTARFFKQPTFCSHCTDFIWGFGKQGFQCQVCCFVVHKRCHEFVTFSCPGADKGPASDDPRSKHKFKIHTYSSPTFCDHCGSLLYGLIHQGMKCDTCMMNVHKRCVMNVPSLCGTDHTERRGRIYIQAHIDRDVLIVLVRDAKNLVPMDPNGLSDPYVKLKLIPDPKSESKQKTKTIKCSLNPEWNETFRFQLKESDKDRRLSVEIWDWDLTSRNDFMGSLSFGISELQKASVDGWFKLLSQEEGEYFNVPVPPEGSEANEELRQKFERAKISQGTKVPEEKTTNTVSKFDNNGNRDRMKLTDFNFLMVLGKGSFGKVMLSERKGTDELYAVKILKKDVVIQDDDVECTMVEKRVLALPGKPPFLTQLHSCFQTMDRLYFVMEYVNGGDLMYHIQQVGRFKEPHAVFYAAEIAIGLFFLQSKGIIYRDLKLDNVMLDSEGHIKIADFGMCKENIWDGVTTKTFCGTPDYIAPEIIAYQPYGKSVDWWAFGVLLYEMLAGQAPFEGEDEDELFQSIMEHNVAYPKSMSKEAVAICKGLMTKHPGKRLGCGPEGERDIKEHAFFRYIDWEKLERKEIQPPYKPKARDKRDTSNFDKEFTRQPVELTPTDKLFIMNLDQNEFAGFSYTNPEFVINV
Chain of CDK9 CCNK (human) (O75909 whole entry, looked up): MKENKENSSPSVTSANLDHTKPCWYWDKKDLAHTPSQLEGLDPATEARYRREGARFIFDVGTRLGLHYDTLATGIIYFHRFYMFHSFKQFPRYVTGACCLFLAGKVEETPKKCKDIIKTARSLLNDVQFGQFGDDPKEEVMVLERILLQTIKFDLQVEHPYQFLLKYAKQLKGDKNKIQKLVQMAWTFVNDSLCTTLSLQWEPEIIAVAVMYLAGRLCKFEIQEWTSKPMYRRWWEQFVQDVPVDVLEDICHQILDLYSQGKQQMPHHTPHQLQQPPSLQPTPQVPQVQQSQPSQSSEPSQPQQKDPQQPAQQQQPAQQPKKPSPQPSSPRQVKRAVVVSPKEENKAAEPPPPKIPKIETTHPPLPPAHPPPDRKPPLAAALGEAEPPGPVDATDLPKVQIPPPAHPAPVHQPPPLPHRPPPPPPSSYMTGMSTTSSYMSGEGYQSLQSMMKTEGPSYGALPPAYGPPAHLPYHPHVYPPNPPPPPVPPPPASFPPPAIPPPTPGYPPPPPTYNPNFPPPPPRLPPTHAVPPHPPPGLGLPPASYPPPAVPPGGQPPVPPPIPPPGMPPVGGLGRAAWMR
Chain of CDK9 CCNK (human) (P50750 whole entry, looked up): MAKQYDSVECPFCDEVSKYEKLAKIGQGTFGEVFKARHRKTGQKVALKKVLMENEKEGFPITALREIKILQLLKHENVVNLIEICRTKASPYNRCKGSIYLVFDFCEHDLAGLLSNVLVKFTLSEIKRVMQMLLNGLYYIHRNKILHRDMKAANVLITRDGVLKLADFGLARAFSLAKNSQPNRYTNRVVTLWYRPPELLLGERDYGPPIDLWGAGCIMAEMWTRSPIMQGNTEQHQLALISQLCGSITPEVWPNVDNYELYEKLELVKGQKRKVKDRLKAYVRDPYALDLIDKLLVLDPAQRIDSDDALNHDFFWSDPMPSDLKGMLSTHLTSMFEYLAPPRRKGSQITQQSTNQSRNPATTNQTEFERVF
Chain of RAF1 (human) (P04049 whole entry, looked up): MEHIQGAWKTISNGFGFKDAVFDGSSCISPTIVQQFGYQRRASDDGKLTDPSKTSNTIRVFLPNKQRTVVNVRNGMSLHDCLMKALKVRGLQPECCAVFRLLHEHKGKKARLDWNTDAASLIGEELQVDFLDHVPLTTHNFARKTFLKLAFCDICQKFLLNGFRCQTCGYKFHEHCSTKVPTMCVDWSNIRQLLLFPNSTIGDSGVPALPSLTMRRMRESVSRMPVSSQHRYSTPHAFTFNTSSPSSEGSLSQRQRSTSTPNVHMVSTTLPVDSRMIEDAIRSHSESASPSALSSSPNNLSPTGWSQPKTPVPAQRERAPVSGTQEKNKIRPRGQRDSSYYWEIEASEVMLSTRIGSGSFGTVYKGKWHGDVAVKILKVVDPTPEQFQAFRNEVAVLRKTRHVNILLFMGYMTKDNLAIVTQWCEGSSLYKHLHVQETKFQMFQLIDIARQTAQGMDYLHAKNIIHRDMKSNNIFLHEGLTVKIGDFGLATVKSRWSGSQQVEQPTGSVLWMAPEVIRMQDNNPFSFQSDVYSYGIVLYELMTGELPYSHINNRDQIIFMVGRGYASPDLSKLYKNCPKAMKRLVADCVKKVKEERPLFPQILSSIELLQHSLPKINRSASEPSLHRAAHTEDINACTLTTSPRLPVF
Chain of EPHA2 (human) (P29317 whole entry, looked up): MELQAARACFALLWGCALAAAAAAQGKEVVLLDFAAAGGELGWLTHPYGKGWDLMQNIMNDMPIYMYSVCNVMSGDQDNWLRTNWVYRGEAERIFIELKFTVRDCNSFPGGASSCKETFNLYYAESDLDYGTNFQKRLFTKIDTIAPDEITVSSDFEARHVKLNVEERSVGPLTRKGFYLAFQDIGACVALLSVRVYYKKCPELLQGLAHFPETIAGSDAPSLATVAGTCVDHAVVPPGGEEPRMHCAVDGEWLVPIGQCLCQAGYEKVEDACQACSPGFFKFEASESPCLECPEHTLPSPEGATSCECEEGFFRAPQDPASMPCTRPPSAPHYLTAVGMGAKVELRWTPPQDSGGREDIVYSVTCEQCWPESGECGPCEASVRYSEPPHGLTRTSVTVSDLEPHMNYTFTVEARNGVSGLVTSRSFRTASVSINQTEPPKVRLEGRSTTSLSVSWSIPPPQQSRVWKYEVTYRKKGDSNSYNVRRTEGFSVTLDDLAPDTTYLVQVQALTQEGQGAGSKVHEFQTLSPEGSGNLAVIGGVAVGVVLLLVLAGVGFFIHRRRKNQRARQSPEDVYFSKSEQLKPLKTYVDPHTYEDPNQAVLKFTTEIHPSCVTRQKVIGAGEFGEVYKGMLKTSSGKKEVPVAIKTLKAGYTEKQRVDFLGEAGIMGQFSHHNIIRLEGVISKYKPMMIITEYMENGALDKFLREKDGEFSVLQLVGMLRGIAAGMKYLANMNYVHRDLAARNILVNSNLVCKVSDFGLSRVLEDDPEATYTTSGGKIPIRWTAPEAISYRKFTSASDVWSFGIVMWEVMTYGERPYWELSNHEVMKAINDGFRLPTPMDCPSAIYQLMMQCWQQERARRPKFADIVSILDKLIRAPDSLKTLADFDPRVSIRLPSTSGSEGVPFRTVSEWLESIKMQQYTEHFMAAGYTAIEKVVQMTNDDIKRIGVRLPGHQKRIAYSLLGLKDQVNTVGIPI

Work on `CC(C)(C)c1nc2c3ccc(F)cc3c3c(=O)[nH]ccc3c2[nH]1` yielded a residual activity (CAMK1G (human)) of 95.3%, a residual activity (AURKB (human)) of 11.2% and a residual activity (CSNK2A1 (human)) of 82.9%. The residual activity (PDGFRA (human)) was 92.1%, the residual activity (MAP3K14 (human)) was 71.3% and the residual activity (SYK (human)) was 79%. The residual activity (MAP3K3 (human)) was 61.1%, the residual activity (ERBB4 (human)) was 99.9% and the residual activity (STK4 (human)) was 6.84%. For the same molecule, the residual activity (CAMK1 (human)) was 79.3%, the residual activity (CDK1 CCNB1 (human)) was 74.9% and the residual activity (KIT (human)) was 96.1%. It also gave a residual activity (CDK9 CCNK (human)) of 92.3%, a residual activity (MAP3K2 (human)) of 33.9% and a residual activity (IKBKE (human)) of 25.4%. For the same molecule, the residual activity (SRMS (human)) was 98.7%, the residual activity (CAMK2B (human)) was 73.4% and the residual activity (PAK7 (human)) was 90.5%. It also gave a residual activity (PDPK1 (human)) of 27%, a residual activity (PRKCZ (human)) of 93.2% and a residual activity (MAPK10 (human)) of 107%. For the same molecule, the residual activity (STK10 (human)) was 72.6%, the residual activity (ZAP70 (human)) was 88.9% and the residual activity (CAMK2D (human)) was 59.4%. It also gave a residual activity (AURKC (human)) of 29.3%, a residual activity (RAF1 (human)) of 134% and a residual activity (MAP3K9 (human)) of 20.4%. For the same molecule, the residual activity (STK16 (human)) was 90.1%, the residual activity (TEK (human)) was 101% and the residual activity (MAP3K7 TAB1 (human)) was 46.6%. It also gave a residual activity (ROS1 (human)) of 31.2%, a residual activity (EPHA2 (human)) of 98.5% and a residual activity (PRKG2 (human)) of 14.3%. For the same molecule, the residual activity (CDK6 CCND1 (human)) was 87.7%, the residual activity (BRSK2 (human)) was 21.4% and the residual activity (PRKCB1 (human)) was 91.5%. It also gave a residual activity (AKT2 (human)) of 89.8%, a residual activity (DYRK1B (human)) of 88.2% and a residual activity (MAP3K11 (human)) of 57%. For the same molecule, the residual activity (PRKD3 (human)) was 10.8%, the residual activity (CSK (human)) was 114% and the residual activity (WEE1 (human)) was 87.4%.
In the case of `NC(=O)c1ccc(N(C(N)=O)c2c(F)cccc2F)nc1-c1ccc(F)cc1F`, the residual activity (CAMK1G (human)) was 108%, the residual activity (AURKB (human)) was 91.3% and the residual activity (CSNK2A1 (human)) was 111%. It also gave a residual activity (PDGFRA (human)) of 102%, a residual activity (MAP3K14 (human)) of 114% and a residual activity (SYK (human)) of 110%. The residual activity (MAP3K3 (human)) was 118%, the residual activity (ERBB4 (human)) was 98.1% and the residual activity (STK4 (human)) was 101%. It also gave a residual activity (CAMK1 (human)) of 98.1%, a residual activity (CDK1 CCNB1 (human)) of 95.7% and a residual activity (KIT (human)) of 97.7%. It also gave a residual activity (CDK9 CCNK (human)) of 106%, a residual activity (MAP3K2 (human)) of 122% and a residual activity (IKBKE (human)) of 88%. For the same molecule, the residual activity (SRMS (human)) was 92.9%, the residual activity (CAMK2B (human)) was 104% and the residual activity (PAK7 (human)) was 96.4%. For the same molecule, the residual activity (PDPK1 (human)) was 87.4%, the residual activity (PRKCZ (human)) was 89.9% and the residual activity (MAPK10 (human)) was 98.4%. The residual activity (STK10 (human)) was 93.8%, the residual activity (ZAP70 (human)) was 100% and the residual activity (CAMK2D (human)) was 87.3%. For the same molecule, the residual activity (AURKC (human)) was 83.8%, the residual activity (RAF1 (human)) was 97.5% and the residual activity (MAP3K9 (human)) was 112%. For the same molecule, the residual activity (STK16 (human)) was 100%, the residual activity (TEK (human)) was 96.7% and the residual activity (MAP3K7 TAB1 (human)) was 105%. For the same molecule, the residual activity (ROS1 (human)) was 95%, the residual activity (EPHA2 (human)) was 89% and the residual activity (PRKG2 (human)) was 98.1%. The residual activity (CDK6 CCND1 (human)) was 95.1%, the residual activity (BRSK2 (human)) was 96.6% and the residual activity (PRKCB1 (human)) was 86.1%. For the same molecule, the residual activity (AKT2 (human)) was 118%, the residual activity (DYRK1B (human)) was 97.1% and the residual activity (MAP3K11 (human)) was 105%. The residual activity (PRKD3 (human)) was 85.1%, the residual activity (CSK (human)) was 90% and the residual activity (WEE1 (human)) was 101%.
`O=c1cc(-c2cccc3c2Sc2ccccc2S3)oc(N2CCOCC2)c1` showed a residual activity (CAMK1G (human)) of 99.4%, a residual activity (AURKB (human)) of 95.8% and a residual activity (CSNK2A1 (human)) of 97.4%. For the same molecule, the residual activity (PDGFRA (human)) was 101%, the residual activity (MAP3K14 (human)) was 94.9% and the residual activity (SYK (human)) was 106%. The residual activity (MAP3K3 (human)) was 137%, the residual activity (ERBB4 (human)) was 105% and the residual activity (STK4 (human)) was 95%. For the same molecule, the residual activity (CAMK1 (human)) was 94.2%, the residual activity (CDK1 CCNB1 (human)) was 88.5% and the residual activity (KIT (human)) was 96.8%. For the same molecule, the residual activity (CDK9 CCNK (human)) was 109%, the residual activity (MAP3K2 (human)) was 92.7% and the residual activity (IKBKE (human)) was 96.5%. It also gave a residual activity (SRMS (human)) of 93.8%, a residual activity (CAMK2B (human)) of 106% and a residual activity (PAK7 (human)) of 98.8%. For the same molecule, the residual activity (PDPK1 (human)) was 104%, the residual activity (PRKCZ (human)) was 102% and the residual activity (MAPK10 (human)) was 93.6%. It also gave a residual activity (STK10 (human)) of 97.1%, a residual activity (ZAP70 (human)) of 97.1% and a residual activity (CAMK2D (human)) of 104%. It also gave a residual activity (AURKC (human)) of 84.9%, a residual activity (RAF1 (human)) of 94.7% and a residual activity (MAP3K9 (human)) of 95.5%. It also gave a residual activity (STK16 (human)) of 95.5%, a residual activity (TEK (human)) of 100% and a residual activity (MAP3K7 TAB1 (human)) of 84.5%. For the same molecule, the residual activity (ROS1 (human)) was 106%, the residual activity (EPHA2 (human)) was 96.2% and the residual activity (PRKG2 (human)) was 92.2%. The residual activity (CDK6 CCND1 (human)) was 98.1%, the residual activity (BRSK2 (human)) was 101% and the residual activity (PRKCB1 (human)) was 103%. The residual activity (AKT2 (human)) was 96%, the residual activity (DYRK1B (human)) was 101% and the residual activity (MAP3K11 (human)) was 98.6%. The residual activity (PRKD3 (human)) was 83.4%, the residual activity (CSK (human)) was 95.7% and the residual activity (WEE1 (human)) was 98.3%.
